Article PMC10786919, “Design-rules for stapled peptides with in vivo activity and their application to Mdm2/X antagonists” (Nature Communications, 2024)
In brackets after ≈: the same amount, converted by molar mass. Like-named read-outs stand apart in the source and are kept apart here. Positions of bridges follow the written chain, without caps; N, C: chain ends. Non-standard residues stand in square brackets, D forms with d. Residues, ends and D or L forms follow the SMILES beside them. ξ: configuration not given here. Lys(N3) = [N-]=[N+]=NCCCC[C@H](N)C(=O)O; R8 = C=CCCCCCC[C@@](C)(N)C(=O)O; ξαMeF = CC(N)(Cc1ccccc1)C(=O)O; Cba = N[C@@H](CC1CCC1)C(=O)O; S5 = C=CCCC[C@](C)(N)C(=O)O; βAla = NCCC(=O)O

What was measured:
[1] = Lactate dehydrogenase (LDH) release assay; type: cell-based
In short: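 Membrane damage measured as lactate dehydrogenase release (CytoTox-ONE kit) from p53-responsive β-lactamase reporter HCT116 cells plated at 8000 per well. Final DMSO 0.5%; geometric mean reported from a minimum of three biological replicates.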

Ca Ski cell line = conditions: 72 h
Procedure: (§1) The medium for CellSensor™ p53RE-bla HCT-116 cells was McCoy’s 5 A Medium (GIBCO16600-002) supplied with 10% FBS (Hyclone, SH30406.05), 100 U/100ug/ml of Pen/Strep (SolarBio, P1400) and 5 μg/ml of blasticidin (GIBCO, A11139). The medium for Ca Ski cells was RPMI1640 (Hyclone, SH3080901B) supplied with 10% FBS and 100 U/100ug/ml of Pen/Strep. All cells were kept in humidified incubators with 5% CO2 at 37 °C. Culture media was changed after one day of subculturing and cells were passed again when there was 70–80% confluence. One day before the assay, the cells were trypsinized, collected, counted and viability was determined. […] The plates were kept in humidified incubators with 5% CO2 at 37 °C overnight. Compounds were prepared as a 10 point, 3x serial dilution in 100% DMSO, starting from a top concentration of 10 mM. […] At the end of the incubation the assay plate was equilibrated at room temperature for approximately 30 minutes prior to the addition of 25 uL of CellTiter-Glo® 2.0 Reagent. The assay plate was mixed for 2 minutes on an orbital shaker to induce cell lysis. Next, the plate was incubated at room temperature for 10 minutes to stabilize the luminescent signal prior to recording the luminescence on a plate reader.

[2] = test system: CellSensor p53RE-bla HCT-116 Cell Line; conditions: 72 h
Procedure: as §1

in vitro = conditions: Nanoclick permeability assay EC50
In short: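 Azido-peptide permeability was read as loss of NanoBRET signal (donor 450 nm, acceptor 610 nm) after adding NanoBret618-azide at 10 μM final.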

[3] = Experimental LogD (partition coefficient); conditions: for logD: not stated, Partition Coeff LogD
[4] = Solubility assay (kinetic solubility, PBS pH 7); type: physicochemical
In short: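 Values derive from peak-area ratios of sample versus a 100 µM standard, scaled by that standard's concentration.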

[5] = pH 7, aqueous buffer, kinetic from dmso stock, pH 7, PBS, read-out: Solubility

## CC(=O)N[C@@H](CCCCN=[N+]=[N-])C(=O)NCCC(=O)N[C@@H](CC(C)C)C(=O)N[C@H](C(=O)N[C@@H](Cc1ccccc1)C(=O)N[C@]1(C)CCCCCCC=CCCC[C@@](C)(C(=O)N[C@@H](CO)C(=O)N[C@@H](C)C(=O)N[C@@H](C)C(N)=O)NC(=O)[C@H](CC2CCC2)NC(=O)[C@H](CCCNC(=N)N)NC(=O)[C@H](C)NC(=O)[C@H](Cc2c[nH]c3ccccc23)NC(=O)[C@H](Cc2ccc(O)cc2)NC(=O)[C@H](CCC(=O)O)NC1=O)[C@@H](C)O [MP-556] (Ac-[Lys(N3)][βAla]LTF[R8]EYWAR[Cba][S5]SAA-NH2; staple 6-13)
[1]; LDH: Cytotoxicity assay EC50
  EC50: > 50 µM
Ca Ski cell line
  EC50: > 49.8 µM
[2]
  EC50: 3.14 µM
In vitro
  cell entry EC50: 0.149 µM
physchem
  EPSA: 221 A^2
[3]
  logD: 3.15

## CC(=O)N[C@@H](CCCCN=[N+]=[N-])C(=O)NCCC(=O)N[C@@H](CC(C)C)C(=O)N[C@H](C(=O)N[C@@H](Cc1ccccc1)C(=O)N[C@]1(C)CCCCCCC=CCCC[C@@](C)(C(=O)N[C@@H](C)C(=O)N[C@@H](C)C(=O)N[C@@H](C)C(=O)N[C@@H](C)C(=O)N[C@@H](C)C(=O)N[C@@H](CCC(=O)O)C(N)=O)NC(=O)[C@H](CC2CCC2)NC(=O)[C@H](CCC(N)=O)NC(=O)[C@H](C)NC(=O)[C@H](Cc2c[nH]c3ccccc23)NC(=O)[C@H](Cc2ccc(O)cc2)NC(=O)[C@H](CCC(=O)O)NC1=O)[C@@H](C)O [MP-836] (Ac-[Lys(N3)][βAla]LTF[R8]EYWAQ[Cba][S5]AAAAAE-NH2; staple 6-13)
[1]; LDH: Cytotoxicity assay EC50
  EC50: > 50.7 µM
[4]; [5]
  solubility kinetic: 164 µM (≈ 365 µg/mL)
Ca Ski cell line
  EC50: > 49.8 µM
[2]
  EC50: 1.05 µM
In vitro
  cell entry EC50: 1.77 µM
[3]
  logD: 2.43

## CC(=O)N[C@@H](CCCCN=[N+]=[N-])C(=O)NCCC(=O)N[C@@H](CC(C)C)C(=O)N[C@H](C(=O)N[C@@H](Cc1ccccc1)C(=O)N[C@]1(C)CCCCCCC=CCCC[C@@](C)(C(=O)N[C@@H](C)C(=O)N[C@H](C)C(=O)N[C@@H](C)C(=O)N[C@H](C)C(=O)N[C@@H](C)C(=O)N[C@H](C)C(N)=O)NC(=O)[C@H](CC2CCC2)NC(=O)[C@H](CCC(N)=O)NC(=O)[C@H](C)NC(=O)[C@H](Cc2c[nH]c3ccccc23)NC(=O)[C@H](Cc2ccc(O)cc2)NC(=O)[C@H](CCC(=O)O)NC1=O)[C@@H](C)O [MP-056] (Ac-[Lys(N3)][βAla]LTF[R8]EYWAQ[Cba][S5]A[dA]A[dA]A[dA]-NH2; staple 6-13)
[1]; LDH: Cytotoxicity assay: EC50
  EC50: > 50.7 µM
[4]; pH 7, Solubility
  solubility kinetic: 157 µM (≈ 340 µg/mL)
[4]; [5]
  solubility kinetic: 147 µM (≈ 319 µg/mL)
Ca Ski cell line
  EC50: > 49.8 µM
[2]
  EC50: 3.3 µM
In vitro
  cell entry EC50: 5.21 µM
[3]
  logD: 2.83

## CC(=O)N[C@@H](CCCCN=[N+]=[N-])C(=O)NCCC(=O)N[C@@H](CC(C)C)C(=O)N[C@H](C(=O)N[C@@H](Cc1ccccc1)C(=O)N[C@]1(C)CCCCCCC=CCCC[C@@](C)(C(=O)N[C@@H](C)C(=O)N[C@@H](CC(C)C)C(=O)N[C@@H](C)C(=O)N[C@@H](C)C(=O)N[C@@H](C)C(=O)N[C@H](C)C(N)=O)NC(=O)[C@H](CC2CCC2)NC(=O)[C@H](CCC(N)=O)NC(=O)[C@H](C)NC(=O)[C@H](Cc2c[nH]c3ccccc23)NC(=O)[C@H](Cc2ccc(O)cc2)NC(=O)[C@H](CCC(=O)O)NC1=O)[C@@H](C)O [MP-968] (Ac-[Lys(N3)][βAla]LTF[R8]EYWAQ[Cba][S5]ALAAA[dA]-NH2; staple 6-13)
[1]; LDH: Cytotoxicity assay EC50
  EC50: > 50.7 µM
[4]; pH 7, PBS
  Solubility: Poorly Behaved
Ca Ski cell line
  EC50: 43.1 µM
[2]
  EC50: 1.41 µM
In vitro
  cell entry EC50: 4.2 µM
[3]
  Partition Coeff LogD: Poorly Behaved

## CC(=O)N[C@@H](CCCCN=[N+]=[N-])C(=O)NCCC(=O)N[C@@H](CC(C)C)C(=O)N[C@H](C(=O)N[C@@H](Cc1ccccc1)C(=O)N[C@]1(C)CCCCCCC=CCCC[C@@](C)(C(=O)N[C@@H](C)C(=O)N[C@@H](C)C(=O)N[C@@H](C)C(=O)N[C@@H](C)C(=O)N[C@@H](CCC(=O)O)C(=O)N[C@H](C)C(N)=O)NC(=O)[C@H](CC2CCC2)NC(=O)[C@H](CCC(N)=O)NC(=O)[C@H](C)NC(=O)[C@H](Cc2c[nH]c3ccccc23)NC(=O)[C@H](Cc2ccc(O)cc2)NC(=O)[C@H](CCC(=O)O)NC1=O)[C@@H](C)O [MP-837] (Ac-[Lys(N3)][βAla]LTF[R8]EYWAQ[Cba][S5]AAAAE[dA]-NH2; staple 6-13)
[1]; LDH: Cytotoxicity assay EC50
  EC50: > 50.7 µM
[4]; [5]
  solubility kinetic: 160 µM (≈ 356 µg/mL)
Ca Ski cell line
  EC50: > 49.8 µM
[2]
  EC50: 0.66 µM
In vitro
  cell entry EC50: 1.52 µM
[3]
  logD: 2.53

## CC(=O)N[C@@H](CCCCN=[N+]=[N-])C(=O)NCCC(=O)N[C@@H](CC(C)C)C(=O)N[C@H](C(=O)N[C@@H](Cc1ccccc1)C(=O)N[C@]1(C)CCCCCCC=CCCC[C@@](C)(C(=O)N[C@@H](CCC(=O)O)C(=O)N[C@@H](C)C(=O)N[C@@H](Cc2ccccc2)C(=O)N[C@@H](C)C(=O)N[C@@H](CCC(N)=O)C(=O)N[C@@H](Cc2ccccc2)C(N)=O)NC(=O)[C@H](CC2CCC2)NC(=O)[C@H](CCC(N)=O)NC(=O)[C@H](C)NC(=O)[C@H](Cc2c[nH]c3ccccc23)NC(=O)[C@H](Cc2ccc(O)cc2)NC(=O)[C@H](CCC(=O)O)NC1=O)[C@@H](C)O [MP-832] (Ac-[Lys(N3)][βAla]LTF[R8]EYWAQ[Cba][S5]EAFAQF-NH2; staple 6-13)
[1]; LDH: Cytotoxicity assay EC50
  EC50: > 50.7 µM
[4]; [5]
  solubility kinetic: 157 µM (≈ 382 µg/mL)
Ca Ski cell line
  EC50: 22.3 µM
[2]
  EC50: 4.17 µM
In vitro
  cell entry EC50: 4.88 µM
[3]
  logD: 3.01

## CC(=O)N[C@@H](CCCCN=[N+]=[N-])C(=O)NCCC(=O)N[C@@H](CC(C)C)C(=O)N[C@H](C(=O)N[C@@H](Cc1ccccc1)C(=O)N[C@]1(C)CCCCCCC=CCCC[C@@](C)(C(=O)N[C@@H](CO)C(=O)N[C@@H](C)C(=O)N[C@@H](C)C(N)=O)NC(=O)[C@H](CC2CCC2)NC(=O)[C@H](CCC(N)=O)NC(=O)[C@H](Cc2c[nH]c3ccccc23)NC(=O)[C@H](Cc2c[nH]c3ccccc23)NC(=O)[C@H](Cc2ccc(O)cc2)NC(=O)[C@H](CCC(=O)O)NC1=O)[C@@H](C)O [MP-186] (Ac-[Lys(N3)][βAla]LTF[R8]EYWWQ[Cba][S5]SAA-NH2; staple 6-13)
[1]; LDH: Cytotoxicity assay EC50
  EC50: > 50 µM
Ca Ski cell line
  EC50: 21.5 µM
[2]
  EC50: 5.8 µM
In vitro
  cell entry EC50: 0.194 µM
physchem
  EPSA: 238 A^2
[3]
  logD: 3.26

## CC(=O)N[C@@H](CCCCN=[N+]=[N-])C(=O)NCCC(=O)N[C@@H](CC(C)C)C(=O)N[C@H](C(=O)N[C@@H](Cc1ccccc1)C(=O)N[C@]1(C)CCCCCCC=CCCC[C@@](C)(C(=O)N[C@@H](C)C(=O)N[C@@H](C)C(=O)N[C@@H](Cc2ccccc2)C(=O)N[C@@H](C)C(=O)N[C@@H](C)C(=O)NC(C)(Cc2ccccc2)C(N)=O)NC(=O)[C@H](CC2CCC2)NC(=O)[C@H](CCC(N)=O)NC(=O)[C@H](C)NC(=O)[C@H](Cc2c[nH]c3ccccc23)NC(=O)[C@H](Cc2ccc(O)cc2)NC(=O)[C@H](CCC(=O)O)NC1=O)[C@@H](C)O (stereo partly shown) [MP-288] (Ac-[Lys(N3)][βAla]LTF[R8]EYWAQ[Cba][S5]AAFAA[ξαMeF]-NH2; staple 6-13)
[1]; LDH: Cytotoxicity assay: EC50
  EC50: > 50.7 µM
[4]; [5]
  solubility kinetic: 12 µM (≈ 28 µg/mL)
Ca Ski cell line
  EC50: > 49.8 µM
[2]
  EC50: 2.74 µM
In vitro
  cell entry EC50: 1.58 µM
[3]
  logD: 4.11

## CC(=O)N[C@@H](CCCCN=[N+]=[N-])C(=O)NCCC(=O)N[C@@H](CC(C)C)C(=O)N[C@H](C(=O)N[C@@H](Cc1ccccc1)C(=O)N[C@]1(C)CCCCCCC=CCCC[C@@](C)(C(=O)N[C@@H](C)C(=O)N[C@@H](C)C(=O)N[C@@H](C)C(=O)N[C@@H](C)C(=O)N[C@@H](C)C(=O)N[C@@H](C)C(=O)N[C@@H](C)C(=O)N[C@@H](C)C(=O)N[C@@H](C)C(N)=O)NC(=O)[C@H](CC2CCC2)NC(=O)[C@H](CCC(N)=O)NC(=O)[C@H](C)NC(=O)[C@H](Cc2c[nH]c3ccccc23)NC(=O)[C@H](Cc2ccc(O)cc2)NC(=O)[C@H](CCC(=O)O)NC1=O)[C@@H](C)O [MP-759] (Ac-[Lys(N3)][βAla]LTF[R8]EYWAQ[Cba][S5]AAAAAAAAA-NH2; staple 6-13)
[1]; LDH: Cytotoxicity assay: EC50
  EC50: > 50.7 µM
[4]; [5]
  solubility kinetic: 15 µM (≈ 35.7 µg/mL)
Ca Ski cell line
  EC50: 25.9 µM
[2]
  EC50: 2.44 µM
In vitro
  cell entry EC50: 3.41 µM
[3]
  logD: 3.49

## CC(=O)N[C@@H](CCCCN=[N+]=[N-])C(=O)NCCC(=O)N[C@@H](CC(C)C)C(=O)N[C@H](C(=O)N[C@@H](Cc1ccccc1)C(=O)N[C@]1(C)CCCCCCC=CCCC[C@@](C)(C(=O)N[C@@H](CO)C(=O)N[C@@H](CCC(=O)O)C(=O)N[C@@H](C)C(N)=O)NC(=O)[C@H](CC2CCC2)NC(=O)[C@H](CCC(N)=O)NC(=O)[C@H](C)NC(=O)[C@H](Cc2c[nH]c3ccccc23)NC(=O)[C@H](Cc2ccc(O)cc2)NC(=O)[C@H](CCC(=O)O)NC1=O)[C@@H](C)O [MP-898]
[1]; LDH: Cytotoxicity assay: EC50
  EC50: > 50.7 µM
[4]; [5]
  solubility kinetic: 145 µM (≈ 294 µg/mL)
Ca Ski cell line
  EC50: > 49.8 µM
[2]
  EC50: 7.5 µM
In vitro
  cell entry EC50: 0.808 µM
[3]
  logD: 2.4
